Laboratory results: PubChem BioAssay AID2060602 (Molecular Pharmacology Branch, DTP, NCI, 2025)
“And” between values parts separate entries of the source, which are not always exact repeats. Equal values may be shown once.

System: 648629-189-R-J1-PDC complex spheroids viability
Assay: Anticancer human tumor 648629-189-R-J1-PDC patient-derived bladder carcinoma cell line growth inhibition [CLK]
Details: for viability, T/C: stronger effect = lower value
Text: A high-throughput screen of multi-cell type tumor spheroids was designed to identify active combinations of […] and targeted small molecules. Complex spheroids include a stromal component modeled by human endothelial cells (HUVEC) and fibroblasts modeled by human mesenchymal stem cells (MSCs). The concentration ranges selected for each drug and investigational agent were based upon clinically achievable concentrations if the clinical Cmax of the agent was known.
Compounds. The drugs and investigational agents: cirtuvivint (SM08502; NSC835563), CC-671 (NSC850746), vemurafenib (NSC761431), tapotoclax (NSC804041), sotorasib (NSC818433), adagrasib (NSC831453), MRTX-1133 (NSC836407), BAY2416964 (NSC825713), copanlisib (NSC816437), inavolisib (NSC800729), abemaciclib (NSC768073), osimertinib (NSC779217), entinostat (NSC756642), eltanexor (KPT-8602, NSC794443), venetoclax (NSC766270), ceralasertib (NSC777638), bortezomib (NSC756655), olaparib (NSC753686), talazoparib (NSC767125), alisertib (NSC759677), peposertib (NSC802822), gemcitabine (NSC613327), 5-fluorouracil (NSC19893), SN-38 (NSC673596), oxaliplatin (NSC266046), paclitaxel (NSC125973), and doxorubicin (NSC123127), were obtained from the National Cancer Institute (NCI) Developmental Therapeutics Program Chemical Repository. The FDA-approved anticancer drug set is available from the Developmental Therapeutics Program at https://dtp.cancer.gov/organization/dscb/obtaining/available plates.htm. […] The stock solutions were prepared in dimethyl sulfoxide (DMSO, Sigma-Aldrich, St. Louis, MO, cat. D2650), except for the platinum complexes which were prepared in saline (Quality Biological, Gaithersburg, MD, cat. 114-055-101), at 800-fold the tested concentration and stored at -70 degrees C prior to their use. All drugs and investigational agents were tested over a range starting from a high concentration at or near the clinical Cmax and decreasing in half-log increments. If the clinical Cmax for an agent had not been determined, the highest concentration tested was 10 microM.
Cell Culture. All cells were maintained in an incubator at 37 degrees C and 5% CO2 with 95% humidity. The PDC lines were cultured according to standard operating procedures established by the NCI PDMR. Briefly, all PDCs were thawed and cultured in Matrigel-coated flasks prepared with a working solution of 1X Ham's F-12 nutrient mix, without supplementation (Invitrogen, Waltham, MA, cat. 11765054), 100 U/mL penicillin-streptomycin (Invitrogen, cat. 15140122), and 2.5% Matrigel (Corning Inc., Corning, NY, cat. 354248) for the first three passages. The 947758-054-R-J2-PDC line was cultured in 6B/Colon 1A media, which includes advanced DMEM/F-12 (Thermo Fisher Scientific, cat. 12634028), 10 mM HEPES (Thermo Fisher Scientific, cat. 15630080), 1X GlutaMAX supplement (Thermo Fisher Scientific, cat. 35050061), 0.1 mg/mL primocin (InvivoGen, cat. ant-pm-2), 10% defined fetal bovine serum, heat inactivated (HyClone Laboratories Inc., cat. SH30070.03HI), 1.25 mM N-Acetyl-L-cysteine (Sigma-Aldrich, cat. A9165), 10 mM nicotinamide (Sigma-Aldrich, cat. N0636), 1X B-27 supplement (Thermo Fisher Scientific, cat. 17504044), 1X N-2 supplement (Thermo Fisher Scientific, cat. 17502048), and 10 microM Y-27632 dihydrochloride (Tocris Bioscience, cat. 1254). The 876862-298-R-J1-PDC was cultured in 6E media, which includes all 6B/Colon 1A media components plus 50% L-WRN conditioned media (ATCC, cat. CRL-3276), 50 ng/mL recombinant human EGF recombinant protein (hEGF; Thermo Fisher Scientific, cat. PHG0311), 10 ng/mL recombinant human fibroblast growth factor 10 (hGFG-10; PeproTech, cat. 100-26), 1 ng/mL recombinant human fibroblast growth factor 2 (hFGF-2; PeproTech, cat. 100-18B), and 1 µM prostaglandin E2 (PGE2; Tocris, cat. 2296). The 227483-062-R1-J1-PDC line was cultured in Panc media, containing all 6E components except hFGF-2, with the addition of 500 nM SB-431542 (Selleckchem, cat. S1067) and 10 nM gastrin (Tocris, cat. 3006). […]

[1] = curve of first compound, second compound 0.0316 µM
[2] = curve of first compound, second compound 0.1 µM
[3] = curve of first compound, second compound 0.316 µM
[4] = curve of first compound, second compound 1 µM
[5] = curve of first compound, second compound 3.16 µM
[6] = curve of first compound, second compound 10 µM
[7] = second compound 0.0316 µM, first compound 0.0316 µM
[8] = second compound 0.0316 µM, first compound 0.1 µM
[9] = second compound 0.0316 µM, first compound 0.316 µM
[10] = second compound 0.0316 µM, first compound 1 µM
[11] = second compound 0.0316 µM, first compound 3.16 µM
[12] = second compound 0.0316 µM, first compound 10 µM
[13] = second compound 0.1 µM, first compound 0.0316 µM
[14] = second compound 0.1 µM, first compound 0.1 µM
[15] = second compound 0.1 µM, first compound 0.316 µM
[16] = second compound 0.1 µM, first compound 1 µM
[17] = second compound 0.1 µM, first compound 3.16 µM
[18] = second compound 0.1 µM, first compound 10 µM
[19] = second compound 0.316 µM, first compound 0.0316 µM
[20] = second compound 0.316 µM, first compound 0.1 µM
[21] = second compound 0.316 µM, first compound 0.316 µM
[22] = second compound 0.316 µM, first compound 1 µM
[23] = second compound 0.316 µM, first compound 3.16 µM
[24] = second compound 0.316 µM, first compound 10 µM
[25] = second compound 1 µM, first compound 0.0316 µM
[26] = second compound 1 µM, first compound 0.1 µM
[27] = second compound 1 µM, first compound 0.316 µM
[28] = second compound 1 µM, first compound 1 µM
[29] = second compound 1 µM, first compound 3.16 µM
[30] = second compound 1 µM, first compound 10 µM
[31] = second compound 3.16 µM, first compound 0.0316 µM
[32] = second compound 3.16 µM, first compound 0.1 µM
[33] = second compound 3.16 µM, first compound 0.316 µM
[34] = second compound 3.16 µM, first compound 1 µM
[35] = second compound 3.16 µM, first compound 3.16 µM
[36] = second compound 3.16 µM, first compound 10 µM
[37] = second compound 10 µM, first compound 0.0316 µM
[38] = second compound 10 µM, first compound 0.1 µM
[39] = second compound 10 µM, first compound 0.316 µM
[40] = second compound 10 µM, first compound 1 µM
[41] = second compound 10 µM, first compound 3.16 µM
[42] = second compound 10 µM, first compound 10 µM
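Wherever viability, T/C is given: drug exposure lasted seven days before viability readout; 100% = DMSO vehicle control wells.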

CCN1CCN(Cc2ccc(Nc3ncc(F)c(-c4cc(F)c5nc(C)n(C(C)C)c5c4)n3)nc2)CC1
viability, T/C (compound 0.00316 µM): 104% and 106%
viability, T/C (compound 0.01 µM): 99.1% and 94.2%
viability, T/C (compound 0.0316 µM): 102%
viability, T/C (compound 0.1 µM): 101% and 93.4%
viability, T/C (compound 0.316 µM): 122% and 121%
viability, T/C (compound 1 µM): 124% and 117%
IC50 (curve of compound): > 1000 nM

CCCS(=O)(=O)Nc1ccc(F)c(C(=O)c2c[nH]c3ncc(-c4ccc(Cl)cc4)cc23)c1F + CNC(=O)c1ccc(Nc2nc(OC3CCCC3)c3c(-c4ccc5nc(C)oc5c4)c[nH]c3n2)c(OC)c1
IC50 [1]: 6250 nM
IC50 [2]: 5910 nM
IC50 [3]: < 31.6 nM
IC50 [4]: < 31.6 nM
IC50 [5]: < 31.6 nM
IC50 [6]: < 31.6 nM
viability, T/C [7]: 117%
viability, T/C [8]: 104%
viability, T/C [9]: 111%
viability, T/C [10]: 89.9%
viability, T/C [11]: 98.7%
viability, T/C [12]: 18.2%
viability, T/C [13]: 75.2%
viability, T/C [14]: 83.9%
viability, T/C [15]: 94.8%
viability, T/C [16]: 94.5%
viability, T/C [17]: 105%
viability, T/C [18]: 15.8%
viability, T/C [19]: 27.9%
viability, T/C [20]: 24.1%
viability, T/C [21]: 33.6%
viability, T/C [22]: 31.2%
viability, T/C [23]: 27.6%
viability, T/C [24]: 7.72%
viability, T/C [25]: 19.7%
viability, T/C [26]: 20.6%
viability, T/C [27]: 23.2%
viability, T/C [28]: 17.9%
viability, T/C [29]: 21%
viability, T/C [30]: 9.33%
viability, T/C [31]: 16.6%
viability, T/C [32]: 21.2%
viability, T/C [33]: 19.1%
viability, T/C [34]: 20.2%
viability, T/C [35]: 20.9%
viability, T/C [36]: 11.3%
viability, T/C [37]: 20.6%
viability, T/C [38]: 21%
viability, T/C [39]: 19.1%
viability, T/C [40]: 18.9%
viability, T/C [41]: 18.7%
viability, T/C [42]: 8.45%

COc1cccc2c1C(=O)c1c(O)c3c(c(O)c1C2=O)CC(O)(C(=O)CO)CC3OC1CC(N)C(O)C(C)O1 (stereo unspecified) + CNC(=O)c1ccc(Nc2nc(OC3CCCC3)c3c(-c4ccc5nc(C)oc5c4)c[nH]c3n2)c(OC)c1
IC50 [1]: < 31.6 nM
IC50 [2]: < 31.6 nM
IC50 [3]: < 31.6 nM
IC50 [4]: < 31.6 nM
IC50 [5]: < 31.6 nM
IC50 [6]: < 31.6 nM
viability, T/C [7]: 26.4%
viability, T/C [8]: 13.9%
viability, T/C [9]: 5.64%
viability, T/C [10]: 0.45%
viability, T/C [11]: 0.38%
viability, T/C [12]: 0.54%
viability, T/C [13]: 19.4%
viability, T/C [14]: 11.8%
viability, T/C [15]: 5.03%
viability, T/C [16]: 0.29%
viability, T/C [17]: 1.37%
viability, T/C [18]: 2.64%
viability, T/C [19]: 16.4%
viability, T/C [20]: 13.1%
viability, T/C [21]: 6.53%
viability, T/C [22]: 0.2%
viability, T/C [23]: 0.98%
viability, T/C [24]: 0.49%
viability, T/C [25]: 12.5%
viability, T/C [26]: 10.1%
viability, T/C [27]: 4.27%
viability, T/C [28]: 0.27%
viability, T/C [29]: 0.56%
viability, T/C [30]: 3.36%
viability, T/C [31]: 18.9%
viability, T/C [32]: 13.1%
viability, T/C [33]: 4.42%
viability, T/C [34]: 0.23%
viability, T/C [35]: 0.79%
viability, T/C [36]: 1.4%
viability, T/C [37]: 21.1%
viability, T/C [38]: 13.5%
viability, T/C [39]: 8.07%
viability, T/C [40]: 0.28%
viability, T/C [41]: 2.28%
viability, T/C [42]: 3.42%
